Source: patent publication US20250228851A1, “ALLOSTERIC INHIBITOR COMPOUNDS FOR OVERCOMING CANCER RESISTANCE” (priority 2021, published 2025)

Assays:
[1] = system: PINCO transfected Ba/F3 cells; experiment: XTT cell viability, Ba/F3 transduced with empty vector (PINCO); type: cell-based, murine; conditions: increasing concentration up to 10 μM
Description: • 1. Ba/F3 cells were obtained from the German Collection of Microorganisms and Cell Cultures (DSMZ, Braunschweig, Germany) and maintained in RPMI 1640 medium supplemented with 10% fetal calf serum (Invitrogen) containing 10 ng/ml of interleukin-3 (Cell Concepts, Umkirch, Germany). Ecotropic Phoenix cells and Rat-1 cells were cultured in Dulbecco's modified Eagle's medium supplemented with 10% fetal calf serum. GNF-2 (Sigma-Adrich, Steinheim, Germany) was dissolved in dimethyl sulfoxide and added at a final concentration of […]. Cell growth was assessed by dye exclusion using Trypan blue. Proliferation was assessed using the XTT proliferation kit (Roche, Mannheim, Germany), according to the manufacturer's instructions. • 2. Ba/F3: IL-3 dependent lymphatic murine pro B cell line. Ba/F3 cells expressing either p185-BCR-ABL1 (p185-BCR-ABL-Ba/F3) or p210-BCR-ABL (p210-BCR-ABL-Ba/F3). p185-BCR-ABL1 (activated kinases substitute for the IL-3 signaling and therefore render the cells IL3 independent. Ba/F3 cells expressing either p185-BCR-ABL (p185-Ba/F3) or p210-BCR-ABL (p210-Ba/F3). Ba/F3 cells obtained from the German Collection of Microorganisms and Cell Cultures (DSMZ, Braunschweig, Germany). • 3. Mutant transduced Ba/F3 cells (T315I-p185-BCR-ABL1 or T315I-p210-BCR-ABL1): Ba/F3 cells expressing either the mutated forms T315I-p185-BCR-ABL1 or T315I-p210-BCR-ABL1. • 4. WT-Sup-B15: A Ph+ ALL cell line harboring the p185-BCR-ABL. Sup-B15: established from the bone marrow of a child with acute lymphoblastic leukemia (B cell precursor ALL) in second relapse in 1984; described in the literature to carry the ALL-variant (m-BCR) of the BCR-ABL1 fusion gene (e1-a2) correct, because it results in the p185-BCR-ABL version. • 5. […]
FIG. 11: Antiproliferative effect of Compound 16 on PINCO transfected Ba/F3 cells. […] Proliferation status was determined by the metabolic activity of cells given by the reduction rate of XTT to formazan. […]

[2] = system: Sup-B15 (p185-BCR-ABL); experiment: XTT cell viability, Sup-B15 (WT-Sup-B15); type: cell-based, human
Description: • 1. Ba/F3 cells were obtained from the German Collection of Microorganisms and Cell Cultures (DSMZ, Braunschweig, Germany) and maintained in RPMI 1640 medium supplemented with 10% fetal calf serum (Invitrogen) containing 10 ng/ml of interleukin-3 (Cell Concepts, Umkirch, Germany). Ecotropic Phoenix cells and Rat-1 cells were cultured in Dulbecco's modified Eagle's medium supplemented with 10% fetal calf serum. GNF-2 (Sigma-Adrich, Steinheim, Germany) was dissolved in dimethyl sulfoxide and added at a final concentration of […]. Cell growth was assessed by dye exclusion using Trypan blue. Proliferation was assessed using the XTT proliferation kit (Roche, Mannheim, Germany), according to the manufacturer's instructions. • 2. Ba/F3: IL-3 dependent lymphatic murine pro B cell line. Ba/F3 cells expressing either p185-BCR-ABL1 (p185-BCR-ABL-Ba/F3) or p210-BCR-ABL (p210-BCR-ABL-Ba/F3). p185-BCR-ABL1 (activated kinases substitute for the IL-3 signaling and therefore render the cells IL3 independent. Ba/F3 cells expressing either p185-BCR-ABL (p185-Ba/F3) or p210-BCR-ABL (p210-Ba/F3). Ba/F3 cells obtained from the German Collection of Microorganisms and Cell Cultures (DSMZ, Braunschweig, Germany). • 3. Mutant transduced Ba/F3 cells (T315I-p185-BCR-ABL1 or T315I-p210-BCR-ABL1): Ba/F3 cells expressing either the mutated forms T315I-p185-BCR-ABL1 or T315I-p210-BCR-ABL1. • 4. WT-Sup-B15: A Ph+ ALL cell line harboring the p185-BCR-ABL. Sup-B15: established from the bone marrow of a child with acute lymphoblastic leukemia (B cell precursor ALL) in second relapse in 1984; described in the literature to carry the ALL-variant (m-BCR) of the BCR-ABL1 fusion gene (e1-a2) correct, because it results in the p185-BCR-ABL version. • 5. […] V617FJAK2 HEL: (Human erythroleukemia) is a growth factor independent erythroleukemic cell line established from the bone marrow of a patient with relapsed Hodgkin disease after autologous bone marrow transplantation (Martin P & Papayannopoulou T: Science 1982; 216:1233-1235). HEL cells display a block in differentiation at the level of common erythroid-megakaryocytic progenitor and have been commonly used as a model to study erythroid and megakaryocytic differentiation. • 7. Jurkat: an immortalized human T lymphocyte first derived from the peripheral blood of a child suffering from T cell leukemia. Jurkat cells are used to study acute T cell leukemia, T cell signaling, and the expression of various chemokine receptors susceptible to viral entry, particularly HIV.
(§1) FIG. 2: Effect of Compound 16 on leukemia cell lines (Jurkat, Sup-B15 and BV173). Cell viablility (CV) was determined following incubation of the 1 m cells/ml of each cell line with increasing concentration of the Compound 16 [empty vehicle (0.0 μM+IL3), 2.5, 5.0 and 10.0 μM]. CV was measured by the XTT method. The means±SD of triplicates from one representative experiment out of three performed are given.

[3] = system: BV173 cells (p210-BCR-ABL); experiment: XTT cell viability, BV173; type: cell-based, human
Description: as §1
Effect of Compound 16 on […] Jurkat (immortalized T lymphocytes derived from the peripheral blood of a child suffering from leukemia. Jurkat cells are often used to study acute T cell leukemia, T cell signaling, and the expression of various chemokine receptors in this experiment Jurkat cells are taken as control), Sup-B15 and BV173. Three Ph+ cells were used to assess the effect of Compound 16. Relevant concentration of the compound was added to seeded cells at day 1 (24 hrs) and cytotoxicity and proliferation were assessed at after 24, 48, 72, 96 and 120 h by XTT. The control was cells exposed to empty vehicle (0 μM, green line in each case), 1, 2 and 5 μM concentration of Compound 16 were administered to the three cell lines. […] The means±SD of triplicates from one representative experiment out of three performed are given. It could be concluded that though Compound 16 inhibits Ph+ Sup-B15 and BV173 are responsive towards Compound 16 with the notion that p210-BCR-ABL leukemia cells at lymphoblastic blast crisis stage are quite more sensitive than p185-BCR-ABL ALL cells at corresponding inhibitor concentration.
FIG. 6: Sensitivity of Sup-B15 (p185-BCR-ABL) compared BV173 cells (p210-BCR-ABL) towards increasing concentration of Compound 16. Ph+ cells were used to assess the effect of Compound 16. To assess the antiproliferative effect, cells were incubated with increasing concentration [0, 2, 4, 6, 8, and 10 μM] of Compound 16 and the viability was assessed using XTT. The means±SD of triplicates from one representative experiment out of three performed are given.

[4] = system: BV173; experiment: Proliferation by dye exclusion after three days, BV173; type: cell-based, human
Description: FIG. 3. […] Cells were exposed to increasing concentration of 2.5, 5 and 10 μM of Compound 16. The negative control cell lines Ph− ALL HP was irresponsive to increasing concentration of Compound 16 (up to 10 μM). […] All four cell lines were plated in duplicates at the indicated concentrations, and proliferation was assessed after three days by dye exclusion of viable cells. […] The sensitivity of Ph+ cells to Compound 16 underlines the involvement of BCR-ABL in the antiproliferative mechanism. Death induction of BV173 cells is well taken as an indication of the ability of such group of compounds to overcome resistance that is originated in non-mutational grounds. However, the ability overcome the resistant T315I-BCR-ABL mutant, as shown in the dose-dependent manner of KÖ (circles), might be indicative for a non-ATP competitive mechanism of action.

Compound: COc1ccc(C(=O)N2CCN(c3cc(Nc4ccc(OC(F)(F)F)cc4)ncn3)CC2)cc1OC [Compound 16]
- antiproliferative response (in words) [1]: No effect
- cells inhibited ([2]; 10 μM): around 69%
- IC50 ([2]; Sup-B15, XTT, estimated): ~4500 nM
- antiproliferative response (in words) ([2]; Sup-B15 / WT-Sup-B15, increasing concentration up to 10 μM): potently inhibited the proliferation
- cells wiped ([3]; 2.5 μM): around 100%
- IC50 ([3]; BV173, XTT, estimated): ~2000 nM
- antiproliferative response (in words) ([3]; BV173, increasing concentration up to 10 μM): most sensitive
- concentration sufficient to block proliferation ([3]; within 24 hours exposure): 1 µM
- IC50 [4]: 2500 nM
